Patent publication US20250177412A1, “SMALL-MOLECULE INHIBITORS TARGETING THE BOB1/OCT1 INTERFACE” (NANTES UNIVERSITE, priority 2022, published 2025)
Read-outs that look alike come from different tables or passages of the source.

Experiments:
[1] = tested on: CD4+CD25- effector T cells; assay: T cell suppression assay (B cell / CD4+CD25- T cell co-culture); assay type: cell-based, human; settings: for inhibition at 10 µM: Homo sapiens, T-cell, read-out: T-cell proliferation (percentage inhibition)
Description: B cells were kept unstimulated (B resting) or stimulated (B expanded) for 24 hours with the expansion mixture containing F(ab′)2 anti-BCR, CpG ODN, CD40L, IL-2, and IL-21. FIG. 6A-B show the expression level of granzyme B measured as frequency (FIG. 6A) and by the MFI (FIG. 6B) in DMSO-treated (compound 005-) and 10 μM compound 005-treated resting (open circles) and expanded for […] (closed circles) B cells. FIG. 6C-G show resting and expanded B cells washed with fresh medium and co-cultured with autologous CPD-labelled CD4^+CD25^− effector T cells for 3 days in the presence of anti-CD3/CD28 Dynabeads. compound 005 was added to the B cells only during 24-hours of activation with the expansion mixture (FIG. 6C-D), followed by daily supplementation during three days of co-culture (FIG. 6E-G). Representative offset histogram overlays showing median fluorescence intensity of staining of gated live […] with cell proliferation dye (CPD) (FIGS. 6C, 6E and 6F). The percentage of proliferating cells is indicated for one representative donor. FIGS. 6D and 6G show corresponding summarized data for the percentage inhibition of proliferation of anti-CD3/CD28-activated CD4^+CD25^− T cells co-cultured with resting (open circles) or expanded (closed circles) B cells without BOB1 inhibitor (DMSO-treated control) or in the presence of 10 μM compound 005. Bars indicate the mean±SD. ** P<0.01, *** P<0.001. FIG. 6H-J Expression values of POU2AF1 (FIG. 6H), POU2F1 (FIG. 6I), and POU2F2 (FIG. 6J) genes encoding BOB1, OCT1 and OCT2, respectively, extracted from scRNA-seq data on B cells stimulated toward regulatory (expanded) or unstimulated (rested). Data are represented with bar plots as mean+SD of non-zero values or with dot plots represented as a percentage of positive cells (FIG. 6H-J) or the average expression in each condition (FIG. 6K). P-values are adjusted to the number of expressed genes in the dataset.
(§1) Cells were resuspended in PBS and labelled with Cell Proliferation Dye eFluor 450 (CPD) (eBioscience) at a final concentration of 10 μM at 37° C. for 10 min, kept on ice for 5 min, and washed twice with 10 mL of ice-cold RPMI 1640 10% FCS medium.
Primary total human B cells (1×10^6 cells/mL) were prestimulated for ˜24 h with the cocktail containing 10 ng/mL of IL-21 (Miltenyi Biotec), 5 μg/mL of F(ab′)2 anti-BCR Abs (Jackson ImmunoResearch Laboratories Inc.), 50 ng/ml of CD40L (R&D systems), 1 μg/mL of CpG oligonucleotides (ODN 2006, Invivogen), and 50 U/mL of IL-2 (Novartis) as previously described, in the presence of vehicle (DMSO) or 10 μM compound 005. […] The capacity of B cells to suppress effector T cell proliferation was assessed as previously described. […] T cell proliferation was evaluated as the percentage of CPD-low T cells on day 3. […]

CD4+CD25- T cells = assay: Anti-CD3/CD28-induced T-cell proliferation (CPD); assay type: cell-based; settings: Homo sapiens, 72 h, 3 days
Description: FIGS. 7A-P are a combination of graphs and FACS plots showing that targeting the BOB1-OCT(s) interaction by compound 005 inhibits dose-dependently T-cell proliferation and selectively suppresses memory Th17 responses. Representative offset histogram overlays showing median fluorescence intensity of cell proliferation dye (CPD) in anti-CD3/CD28-activated CD4^+CD25^− T cells cultured without BOB1 inhibitor (DMSO-treated control) or in the presence of 5, 10 or 15 μM compound 005, as indicated (FIG. 7A). The percentage of proliferating cells is indicated for one representative donor. […] FIG. 7C-O show the expression of Th1-(IFNG (FIG. 7C), TNF (FIG. 7D), IL-2 (FIG. 7E) and TBX21 (FIG. 7F)), Th2-(IL-4 (FIG. 7G) and GATA3 (FIG. 7H)), Th17-(IL-17A (FIG. 7I), IL-17F (FIG. 7J), IL-21 (FIG. 7K), IL-22 (FIG. 7L) and RORC (FIG. 7M)), and Treg-(IL-10 (FIG. 7N) and FOXP3 (FIG. 7O)) associated cytokines and transcription factors during recall (memory) T cell responses in vitro. […] Each dot represents a biological replicate. Bars indicate the mean±SD. * P<0.05, ** P<0.01, **** P<0.0001.
as §1
To confirm and extend the observation that targeting the BOB1-OCT(s) interaction suppresses effector T cell proliferation efficiently, we cultured CD4^+CD25^− T cells in the presence of anti-CD3/CD28 microbeads and different concentrations of compound 005 for 3 days. […] OCT1 is constitutively expressed in T cells, whereas BOB1 is induced only after activation. […] Therefore, we next determined the consequences of inhibition of the OCT1-BOB1 complex on the expression of Th1-, Th2-, and Th17-associated cytokines during primary and secondary (memory) T-cell responses in vitro (FIGS. 7C-O). […]

SMILES: Cc1ccc(NC(=O)C2CN(c3nc(NCCCc4ccc(F)cc4)nc(NCCC(=O)O)n3)c3ccccc3O2)cc1Cl (stereo not shown) [compound 005, 3-((4-(2-((3-chloro-4-methylphenyl)carbamoyl)-2,3-dihydro-4H-benzo[b][1,4]oxazin-4-yl)-6-((3-(4-fluorophenyl)propyl)amino)-1,3,5-triazin-2-yl)amino)propanoic acid]
- suppressive capacity of B expanded ([1]; 10 μM during the 24-hours pre-stimulation phase only): did not affect
- suppression of effector T-cell proliferation ([1]; 10 μM, co-cultures of T cells and B expanded): 79.7±4.9
- inhibition at 10 µM ([1]; 72 h, 10 μM, T cells only, 3 days): 53.7 ± 5.8%
- inhibition at 10 µM ([1]; 10 μM, co-cultures of T cells and B resting): 52.1 ± 7.1%
- inhibition at 5 µM (CD4+CD25- T cells; 5 μM): 18.8 ± 12.5%
- inhibition at 10 µM (CD4+CD25- T cells; 10 μM): 50.5 ± 10.2%
- inhibition at 15 µM (CD4+CD25- T cells; 15 μM): 77.5 ± 9.2%
